Test results published in patent US6706664B1, “Benzoxazole compounds, process for the preparation thereof and herbicides” (UBE Industries, Ltd., priority 1999, dated 2004).

Assays:
Set-up in all cases: key: 0: normal development; 1: Less damaged; 2: Slightly damaged; 3: Moderately damaged; 4: Severely damaged; 5: All killed
[1] = test system: morning glory; assay: Foliar spread test for upland field; assay type: in vivo, Ipomoea spps.; conditions: foliar spray 500 ppm, 3 weeks, rank vs non-treated
Method in brief: (§1)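 Post-emergence foliar spray, 500 ppm (wettable powder in water + 0.5% surfactant), on ~2-week-old plants grown in volcanic ash soil; glasshouse, avg 25° C, 3 wk; visual damage score 0–5.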

[2] = test system: corn; assay: Foliar spread test for upland field; assay type: in vivo; conditions: foliar spray 500 ppm, 3 weeks, rank vs non-treated
Method in brief: (§2)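 Two-week-old glasshouse seedlings on volcanic ash soil were treated by foliar spray at 500 ppm, with 0.5% surfactant in the diluent. Effects were graded visually after three weeks, from 0 for no injury to 5 for complete kill.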

[3] = test system: solgum; assay: Foliar spread test for upland field; assay type: in vivo; conditions: foliar spray 500 ppm, 3 weeks, rank vs non-treated
Method in brief: as §2

[4] = test system: sugar beat; assay: Foliar spread test for upland field; assay type: in vivo; conditions: foliar spray 500 ppm, 3 weeks, rank vs non-treated
Method in brief: as §2

[5] = test system: wheat; assay: Foliar spread test for upland field; assay type: in vivo; conditions: foliar spray 500 ppm, 3 weeks, rank vs non-treated
Method in brief: as §2

[6] = test system: common lambsquartes; assay: Soil treatment test for upland field; assay type: in vivo, Chenopodium album; conditions: 500 g/ha, glass house 25° C., 3 weeks
Method in brief: (§3)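 Pre-emergence: seeds sown in Ube alluvial soil in pots, then soil surface sprayed with wettable-powder formulation diluted in water with 0.05% surfactant at 500 g/ha. Plants kept in glasshouse at average 25° C for 3 weeks; injury scored 0 (normal) to 5 (all killed).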

[7] = test system: green foxtail; assay: Foliar spread test for upland field; assay type: in vivo, Setaria viridis; conditions: foliar spray 500 ppm, 3 weeks, rank vs non-treated
Method in brief: as §1

[8] = test system: corn; assay: Soil treatment test for upland field; assay type: in vivo; conditions: 500 g/ha, glass house 25° C., 3 weeks
Method in brief: as §3

[9] = test system: solgum; assay: Soil treatment test for upland field; assay type: in vivo; conditions: 500 g/ha, glass house 25° C., 3 weeks
Method in brief: as §3

[10] = test system: cotton; assay: Soil treatment test for upland field; assay type: in vivo; conditions: 500 g/ha, glass house 25° C., 3 weeks
Method in brief: as §3

[11] = test system: sugar beat; assay: Soil treatment test for upland field; assay type: in vivo; conditions: 500 g/ha, glass house 25° C., 3 weeks
Method in brief: as §3

[12] = test system: soybean; assay: Soil treatment test for upland field; assay type: in vivo; conditions: 500 g/ha, glass house 25° C., 3 weeks
Method in brief: as §3

[13] = test system: wheat; assay: Soil treatment test for upland field; assay type: in vivo; conditions: 500 g/ha, glass house 25° C., 3 weeks
Method in brief: as §3

[14] = test system: annual bluegrass; assay: Soil treatment test for upland field; assay type: in vivo, Poa annua; conditions: 500 g/ha, glass house 25° C., 3 weeks
Method in brief: as §3

[15] = test system: blackgrass; assay: Foliar spread test for upland field; assay type: in vivo, Alopecurus aegualis; conditions: foliar spray 500 ppm, 3 weeks, rank vs non-treated
Method in brief: as §1

[16] = test system: young rice plant; assay: Herbicidal test for paddy field; assay type: in vivo; conditions: paddy field pot, 500 g/ha dropwise at 1.5 leaf stage of barnyardgrass, 3 weeks, rank vs non-treated
Method in brief: (§4)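 Ube alluvial soil in pots flooded to 3 cm water depth, sown with seeds or tubers. Wettable powder diluted in water with 0.05% surfactant was dripped onto the water at 500 g/ha when barnyardgrass reached the 1.5-leaf stage. After 3 weeks in a glasshouse at an average of 25° C, damage was scored 0 (normal) to 5 (all killed) against untreated pots.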

[17] = test system: livid amaranth; assay: Soil treatment test for upland field; assay type: in vivo, Amaranthus lividus; conditions: 500 g/ha, glass house 25° C., 3 weeks
Method in brief: as §3

[18] = test system: green foxtail; assay: Soil treatment test for upland field; assay type: in vivo, Setaria viridis; conditions: 500 g/ha, glass house 25° C., 3 weeks
Method in brief: as §3

[19] = test system: monochoria; assay: Herbicidal test for paddy field; assay type: in vivo, Monochoria vaginalis; conditions: paddy field pot, 500 g/ha dropwise at 1.5 leaf stage of barnyardgrass, 3 weeks, rank vs non-treated
Method in brief: as §4

Row | SMILES | Effects Morning glory [1] | Effects Corn [2] | Effects Solgum [3] | Effects Sugar beat [4] | Effects Wheat [5] | Effects Common lambsquarters [6] | Effects Green foxtail [7] | Effects Corn [8] | Effects Solgum [9] | Effects Cotton [10] | Effects Sugar beat [11] | Effects Soybean [12] | Effects Wheat [13] | Effects Annual bluegrass [14] | Effects Blackgrass [15] | Effect Young rice plant [16] | Effects Livid amaranth [17] | Effects Green foxtail [18] | Effect Monochoria [19]
1 | CCCC(Oc1ccc(F)c(C(F)(F)F)c1)c1nc2cc(C(F)(F)F)ccc2o1 (stereo not drawn) [Compound 199] | 4 | 2 | 1 | 3 | 1 | 5 | 2 | 1 | 1 | 2 | 5 | 2 | 0 | 5 | 2 | 1 | 5 | 5 | 5
2 | CCC(Oc1cccc(C(F)(F)F)c1)c1nc2cc(Br)ccc2o1 (stereo not drawn) [Compound 166] | 4 | 3 | 1 | 4 | 1 | 2 | 3 | 0 | 0 | 0 | 5 | 0 | 0 | 5 | 1 | 1 | 5 | 5 | 5
3 | CCCC(Oc1cccc(C(F)(F)F)c1)c1nc2cc(C(F)(F)F)ccc2o1 (stereo not drawn) [Compound 200] | 3 | 2 | 2 | 4 | 2 | 4 | 5 | 1 | 1 | 1 | 5 | 0 | 1 | 5 | 2 | 0 | 5 | 5 | 5
4 | CCC(Oc1cccc(C(F)(F)F)c1)c1nc2cc(Cl)ccc2o1 (stereo not drawn) [Compound 140] | 3 | 3 | 2 | 3 | 2 | 4 | 2 | 0 | 1 | 0 | 3 | 0 | 0 | 5 | 2 | 1 | 5 | 5 | 5
5 | CCC(Oc1cccc(C(F)(F)F)c1)c1nc2cc(C#N)c(C#N)cc2o1 (stereo not drawn) [Compound 315] | 3 | 1 | 2 | 5 | 2 | 4 | 5 | 2 | 1 | 1 | 5 | 1 | 1 | 5 | 2 | 1 | 5 | 5 | 4
6 | CCCC(Oc1cccc(C(F)(F)F)c1)c1nc2cc(Cl)ccc2o1 (stereo not drawn) [Compound 142, 1-(5-chlorobenzoxazol-2-yl)-1-(3-(trifluoromethyl)phenoxy)butane] | 3 | 3 | 2 | 3 | 3 | 5 | 2 | 1 | 1 | 0 | 5 | 3 | 1 | 5 | 2 | 1 | 5 | 5 | 5
7 | CCC(Oc1cccc(OC(F)(F)F)c1)c1nc2cc([N+](=O)[O-])ccc2o1 (stereo not drawn) [Compound 450] | 2 | 3 | 3 | 5 | 2 | 4 | 3 | 2 | 2 | 2 | 5 | 1 | 1 | 5 | 3 | 1 | 5 | 5 | 5
8 | CCCC(Oc1cccc(C(F)(F)F)c1)c1nc2cc(C#N)ccc2o1 (stereo not drawn) [Compound 192] | 2 | 2 | 2 | 4 | 2 | 5 | 5 | 2 | 2 | 1 | 5 | 0 | 2 | 5 | 2 | 1 | 5 | 5 | 5
9 | CCC(Oc1ccc(Cl)c(C(F)(F)F)c1)c1nc2cc(F)ccc2o1 (stereo not drawn) [Compound 441] | 1 | 2 | 2 | 4 | 2 | 4 | 3 | 0 | 1 | 0 | 5 | 0 | 1 | 5 | 2 | 1 | 5 | 5 | 5
